Assay results: PubChem BioAssay AID330 (DTP/NCI, 2004)
“And” between values parts separate entries of the source, which are not always exact repeats. Identical values can stand only once. Toxic doses and inconclusive results are not listed. How the source made its calls: active means survival T/C of 150% or more; inactive means T/C below 125% in these data.

Test system: P388 leukemia ip, CD2F1 mice, survival T/C
Test: NCI In Vivo Anticancer Drug Screen. Data for tumor model P388 Leukemia (intraperitoneal) in CD2F1 (CDF1) mice
Conditions: endpoint: median survival time, higher = longer survival
Summary of the method: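 Mice carrying the transplanted tumor received test compound or vehicle. Survival was recorded in each group, and the value is the treated-group measurement divided by that of the vehicle-treated control group.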

[1] = dose: 60.0 mg/kg/injection, schedule: Q01DX005 (ip), vehicle: saline
[2] = dose: 120.0 mg/kg/injection, schedule: Q01DX005 (ip), vehicle: saline
[3] = dose: 240.0 mg/kg/injection, schedule: Q01DX005 (ip), vehicle: saline
[4] = dose: 50.0 mg/kg/injection, schedule: Q01DX009 (ip), vehicle: saline with Tween-80
[5] = dose: 100.0 mg/kg/injection, schedule: Q01DX009 (ip), vehicle: saline with Tween-80
[6] = dose: 200.0 mg/kg/injection, schedule: Q01DX009 (ip), vehicle: saline with Tween-80
[7] = dose: 25.0 mg/kg/injection, schedule: Q01DX009 (ip), vehicle: saline with Tween-80
[8] = dose: 50.0 mg/kg/injection, schedule: Q01DX009 (ip), vehicle: Klucel (hydroxypropylcellulose) (HPC)
[9] = dose: 100.0 mg/kg/injection, schedule: Q01DX009 (ip), vehicle: Klucel (hydroxypropylcellulose) (HPC)
[10] = dose: 200.0 mg/kg/injection, schedule: Q01DX009 (ip), vehicle: Klucel (hydroxypropylcellulose) (HPC)
[11] = dose: 60.0 mg/kg/injection, schedule: Q01DX005 (ip), vehicle: saline with Tween-80
[12] = dose: 120.0 mg/kg/injection, schedule: Q01DX005 (ip), vehicle: saline with Tween-80
[13] = dose: 50.0 mg/kg/injection, schedule: Q01DX005 (ip), vehicle: Klucel (hydroxypropylcellulose) (HPC)
[14] = dose: 100.0 mg/kg/injection, schedule: Q01DX005 (ip), vehicle: Klucel (hydroxypropylcellulose) (HPC)
[15] = dose: 200.0 mg/kg/injection, schedule: Q01DX005 (ip), vehicle: Klucel (hydroxypropylcellulose) (HPC)
[16] = dose: 12.5 mg/kg/injection, schedule: Q01DX009 (ip), vehicle: saline with Tween-80

Measured: T/C

COc1cc(C[C@H]2c3cc(OC)c(OC)c(O)c3CCN2C)c(Oc2cc3c(cc2OC)-c2c(OC)c(OC)c(OC)c4c2C(C3)N(C)CC4)cc1OC (stereo partly specified) (tested in a mixture with another compound)
inactive: dose: 8.75 mg/kg/injection, schedule: Q01DX005 (ip), vehicle: Klucel (hydroxypropylcellulose) (HPC) 103 % of control | dose: 17.5 mg/kg/injection, schedule: Q01DX005 (ip), vehicle: Klucel (hydroxypropylcellulose) (HPC) 99 % of control | dose: 35.0 mg/kg/injection, schedule: Q01DX005 (ip), vehicle: Klucel (hydroxypropylcellulose) (HPC) 96 % of control | dose: 70.0 mg/kg/injection, schedule: Q01DX005 (ip), vehicle: Klucel (hydroxypropylcellulose) (HPC) 94 % of control

CCCN1CC=CCC1
inactive: [1] 100 % of control | [2] 100 % of control | [3] 100 % of control

COc1cc(OC)cc(C2OC(=O)c3c(OC)cc(C)cc32)c1 (stereo unspecified)
inactive: dose: 100.0 mg/kg/injection, schedule: Q04DX002 (ip), vehicle: saline with Tween-80 93 % of control | dose: 200.0 mg/kg/injection, schedule: Q04DX002 (ip), vehicle: saline with Tween-80 88 % of control | dose: 400.0 mg/kg/injection, schedule: Q04DX002 (ip), vehicle: saline with Tween-80 90 % of control

O=c1c(F)cn(-c2ccco2)c(=O)n1-c1ccco1
inactive: dose: 37.5 mg/kg/injection, schedule: Q04DX003 (ip), vehicle: saline + alcohol 103 % of control | dose: 75.0 mg/kg/injection, schedule: Q04DX003 (ip), vehicle: saline + alcohol 100 % of control | dose: 150.0 mg/kg/injection, schedule: Q04DX003 (ip), vehicle: saline + alcohol 96 % of control

NCc1nnn(Cc2ccccc2)c1N
inactive: [4] 90 % of control | [5] 92 % of control | [6] 92 % of control

CC(C)=CCc1cc(O)c(CC=C(C)C)cc1O
inactive: [7] 101 % of control | [4] 106 % of control | [5] 96 % of control | [6] 96 % of control

CCCCCCCC(=S)SCCCC(=O)O
inactive: [8] 100 % of control | [9] 100 % of control | [10] 99 % of control

O/N=C1/CCC/C(=N/O)C1
inactive: dose: 50.0 mg/kg/injection, schedule: Q01DX005 (ip), vehicle: saline with Tween-80 100 % of control | dose: 100.0 mg/kg/injection, schedule: Q01DX005 (ip), vehicle: saline with Tween-80 98 % of control | dose: 200.0 mg/kg/injection, schedule: Q01DX005 (ip), vehicle: saline with Tween-80 107 % of control

O=C1C(O)=C(c2ccccc2)C12CSC1(CS2)C(=O)C(O)=C1c1ccccc1 (stereo unspecified)
inactive: [11] 100 % of control | [12] 94 % of control | dose: 240.0 mg/kg/injection, schedule: Q01DX005 (ip), vehicle: saline with Tween-80 91 % of control

O=C(O)C(Cc1ccc(O)cc1)NC(=O)C(F)(F)F (stereo unspecified)
inactive: [4] 98 % of control and 100 % of control | [5] 93 % of control | [6] 90 % of control

C[n+]1c(SCC(=O)O)sc2ccccc21
inactive: dose: 12.5 mg/kg/injection, schedule: Q01DX009 (ip), vehicle: saline 99 % of control | dose: 25.0 mg/kg/injection, schedule: Q01DX009 (ip), vehicle: saline 104 % of control | dose: 50.0 mg/kg/injection, schedule: Q01DX009 (ip), vehicle: saline 108 % of control and 122 % of control

O=C(OCC(Cl)(Cl)Cl)N1CCCCC1
inactive: [7] 98 % of control | [4] 92 % of control | [5] 102 % of control

COc1ccc(/C=N/N(C)C(=O)Nc2cccc(Cl)c2)cc1OC
inactive: [4] 98 % of control | [5] 98 % of control | [6] 105 % of control

COc1cc2c(cc1OCc1ccccc1)C(Cc1cc(Br)sc1Br)=NCC2
inactive: [13] 88 % of control | [14] 90 % of control | [15] 92 % of control

Cc1ccc(C(=O)Cc2nc(C#N)c(C#N)nc2CC(=O)c2ccc(C)cc2)cc1
inactive: [11] 112 % of control | [12] 120 % of control

O=C1NS(=O)(=O)Oc2c1ccc1ccccc21
inactive: [16] 108 % of control | [7] 99 % of control | [4] 96 % of control | [5] 96 % of control | [6] 110 % of control

CC(NC(CCCN=C(N)N)C(=O)O)C(=O)O (stereo unspecified)
inactive: [1] 92 % of control | [2] 100 % of control | [3] 100 % of control

C=CCN1C(=O)NC(=O)C(c2ccccc2)C1=O (stereo unspecified)
inactive: [8] 98 % of control | [9] 100 % of control | [10] 92 % of control

COC(=O)C1(C)CCCC2(C)c3cc(OC)ccc3C3(CC12)OCCS3 (stereo unspecified)
inactive: dose: 2.5 mg/kg/injection, schedule: Q01DX009 (ip), vehicle: saline with Tween-80 100 % of control | dose: 5.0 mg/kg/injection, schedule: Q01DX009 (ip), vehicle: saline with Tween-80 98 % of control | dose: 10.0 mg/kg/injection, schedule: Q01DX009 (ip), vehicle: saline with Tween-80 92 % of control

C/C=C1\CNC2Cc3c([nH]c4ccccc34)C(c3c(OC)ccc4c5c([nH]c34)C3(C(=O)OC)CC4CC(CC)C3N(CC5)C4)CC1C2C(=O)OC (stereo unspecified)
inactive: dose: 1.56 mg/kg/injection, schedule: Q01DX009 (ip), vehicle: saline with Tween-80 93 % of control | dose: 3.12 mg/kg/injection, schedule: Q01DX009 (ip), vehicle: saline with Tween-80 90 % of control | [16] 93 % of control | [7] 90 % of control

Cc1ccc(S(=O)(=O)NC(=O)Nc2ccccc2SC2CCc3ccccc32)cc1 (stereo unspecified)
inactive: [13] 105 % of control | [14] 108 % of control | [15] 102 % of control

CCCCCCC[CH2][Sn]([CH2]C)([CH2]C)[O]C(C)=O
inactive: dose: 0.25 mg/kg/injection, schedule: Q01DX009 (ip), vehicle: saline with Tween-80 122 % of control

CC1=CCCC(C)(O)C2CC(CCC3(C)OC3CC1)C(C)C(=O)O2 (stereo unspecified)
inactive: dose: 7.5 mg/kg/injection, schedule: Q01DX009 (ip), vehicle: Klucel (hydroxypropylcellulose) (HPC) 108 % of control | dose: 15.0 mg/kg/injection, schedule: Q01DX009 (ip), vehicle: Klucel (hydroxypropylcellulose) (HPC) 103 % of control | dose: 30.0 mg/kg/injection, schedule: Q01DX009 (ip), vehicle: Klucel (hydroxypropylcellulose) (HPC) 89 % of control | dose: 60.0 mg/kg/injection, schedule: Q01DX009 (ip), vehicle: Klucel (hydroxypropylcellulose) (HPC) 91 % of control

NNC(N)=NC1CCCCC1
inactive: [13] 95 % of control | [14] 97 % of control

CCCCCCCN(CCCCCCC)CC(O)c1c(OC)c2ccccc2c2ccccc12 (stereo unspecified)
inactive: [7] 89 % of control | [4] 88 % of control

NC(=O)c1cc(C(N)=O)n(C2OC(CO)C(O)C2O)n1 (stereo unspecified)
inactive: dose: 30.0 mg/kg/injection, schedule: Q04DX002 (ip), vehicle: saline 98 % of control and 99 % of control | dose: 60.0 mg/kg/injection, schedule: Q04DX002 (ip), vehicle: saline 104 % of control and 93 % of control | dose: 120.0 mg/kg/injection, schedule: Q04DX002 (ip), vehicle: saline 98 % of control and 93 % of control

CCP(=O)(CC)CC
inactive: dose: 25.0 mg/kg/injection, schedule: Q01DX005 (ip), vehicle: saline 98 % of control | dose: 50.0 mg/kg/injection, schedule: Q01DX005 (ip), vehicle: saline 105 % of control | dose: 100.0 mg/kg/injection, schedule: Q01DX005 (ip), vehicle: saline 99 % of control | dose: 200.0 mg/kg/injection, schedule: Q01DX005 (ip), vehicle: saline 99 % of control | dose: 400.0 mg/kg/injection, schedule: Q01DX005 (ip), vehicle: saline 99 % of control

N#Cc1ccc(NC(=O)Nc2ccc(Cc3ccc(NC(=O)Nc4ccc(C#N)cc4)cc3)cc2)cc1
inactive: dose: 15.0 mg/kg/injection, schedule: Q01DX005 (ip), vehicle: Klucel (hydroxypropylcellulose) (HPC) 97 % of control | dose: 30.0 mg/kg/injection, schedule: Q01DX005 (ip), vehicle: Klucel (hydroxypropylcellulose) (HPC) 90 % of control | dose: 60.0 mg/kg/injection, schedule: Q01DX005 (ip), vehicle: Klucel (hydroxypropylcellulose) (HPC) 87 % of control | dose: 120.0 mg/kg/injection, schedule: Q01DX005 (ip), vehicle: Klucel (hydroxypropylcellulose) (HPC) 94 % of control

CC1=CC(=O)C(C(C)C)=CC1=O
inactive: dose: 0.75 mg/kg/injection, schedule: Q01DX009 (ip), vehicle: saline with Tween-80 100 % of control | dose: 1.5 mg/kg/injection, schedule: Q01DX009 (ip), vehicle: saline with Tween-80 104 % of control | dose: 3.0 mg/kg/injection, schedule: Q01DX009 (ip), vehicle: saline with Tween-80 104 % of control
